Measured values: US12384770B2, “Heterocyclic compound” (Takeda Pharmaceutical Company Limited, priority 2019, dated 2025)

Target: T1, HDAC6 enzyme (Homo sapiens, UniProt Q9UBN7)
T1 construct: HDAC6 enzyme prepared by transducing full length HDAC6 gene into Sf-9 insect cells; GST; purchased SignalChem; host or cells: Sf-9 insect cells
T1 sequence (Q9UBN7 1-1215): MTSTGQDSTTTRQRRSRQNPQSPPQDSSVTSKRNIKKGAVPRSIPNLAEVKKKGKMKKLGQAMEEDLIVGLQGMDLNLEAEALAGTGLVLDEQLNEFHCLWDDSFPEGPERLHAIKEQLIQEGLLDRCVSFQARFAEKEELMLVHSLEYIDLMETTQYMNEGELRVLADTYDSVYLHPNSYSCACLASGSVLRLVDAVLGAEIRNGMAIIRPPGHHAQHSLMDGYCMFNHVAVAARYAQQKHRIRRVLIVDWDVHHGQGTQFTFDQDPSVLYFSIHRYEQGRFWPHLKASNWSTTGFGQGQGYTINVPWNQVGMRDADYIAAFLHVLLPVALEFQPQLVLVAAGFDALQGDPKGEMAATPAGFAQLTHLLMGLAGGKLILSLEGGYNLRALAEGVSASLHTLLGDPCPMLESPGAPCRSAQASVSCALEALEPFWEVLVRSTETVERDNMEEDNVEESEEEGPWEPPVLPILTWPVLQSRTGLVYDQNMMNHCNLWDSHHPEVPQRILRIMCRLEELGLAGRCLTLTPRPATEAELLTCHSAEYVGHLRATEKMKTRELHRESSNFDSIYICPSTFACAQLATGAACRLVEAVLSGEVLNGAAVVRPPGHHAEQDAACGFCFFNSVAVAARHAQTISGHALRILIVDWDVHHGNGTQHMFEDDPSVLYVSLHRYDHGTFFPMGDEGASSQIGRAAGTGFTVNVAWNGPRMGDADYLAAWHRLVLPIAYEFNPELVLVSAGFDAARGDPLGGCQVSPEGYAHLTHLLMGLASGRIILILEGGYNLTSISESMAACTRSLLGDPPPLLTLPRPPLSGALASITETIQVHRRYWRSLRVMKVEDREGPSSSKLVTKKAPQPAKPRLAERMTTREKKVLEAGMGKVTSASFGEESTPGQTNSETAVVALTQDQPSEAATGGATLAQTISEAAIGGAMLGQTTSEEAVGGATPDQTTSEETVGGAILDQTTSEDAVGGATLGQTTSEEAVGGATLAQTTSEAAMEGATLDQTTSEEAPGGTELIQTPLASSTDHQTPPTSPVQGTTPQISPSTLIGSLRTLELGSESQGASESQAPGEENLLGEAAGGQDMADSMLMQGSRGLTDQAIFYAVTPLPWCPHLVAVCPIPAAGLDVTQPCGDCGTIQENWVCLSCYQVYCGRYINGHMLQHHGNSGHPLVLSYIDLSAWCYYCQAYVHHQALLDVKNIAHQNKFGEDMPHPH
Experiment: HDAC6 enzyme inhibitory assay (HDAC-Glo I/II Assay kit)
Type: biochemical
Details: wells without enzyme = 100% inhibition; for inhibition at 10 µM: read-out: HDAC6 inhibitory rate (%) (10 μM)
Protocol: Experimental Example 1 HDAC6 Enzyme Inhibitory Assay
HDAC6 enzyme prepared by transducing full length HDAC6 gene into Sf-9 insect cells and purifying by GST affinity column were purchased from SignalChem. Using this enzyme, HDAC6 enzyme inhibitory activity of the compound of the present invention were evaluated. Enzymes were used after preserved at −70° C. HDAC6 enzyme inhibitory activity of the compound of the present invention was measured using HDAC-Glo™ I/II Assay kit (Promega) according to the following experimental method. The test compound diluted with assay buffer (24 mM Tris-HCl (pH 7.5), 1 mM MgCl2, 0.35 mM KCl, 135 mM NaCl, 0.6 mM Glutathione, 0.01% Tween-20) was added to a 384-well plate by each 2 μL. Then, HDAC6 enzyme solution diluted with assay buffer was added thereto by each 4 μL, and the plate was incubated at room temperature for 60 min. After incubated, HDAC substrate-Developer solution prepared according to Promega protocol attached to the assay kit was added to the 384-well plate by each 2 μL, and the enzyme reaction was started. After reacting at room temperature for 20 min, luminescence level was measured using plate reader Envision (PerkinElmer). The inhibitory activity of each compound of Example was calculated as a relative activity value when luminescence level in wells without enzyme is considered as 100% inhibition.

Row | Compound | inhibition at 10 µM [%] | HDAC6 inhibitory rate (%) (10 μM)
1 | O=C1c2cc(-c3nnc(C(F)F)o3)ccc2CN1[C@H](c1ccccn1)[C@@H](O)c1ccc(C(F)(F)F)cn1 (single isomer, unassigned) [Example 104, 6-[5-(difluoromethyl)-1,3,4-oxadiazol-2-yl]-2-{(1R*,2R*)-2-hydroxy-1-(pyridin-2-yl)-2-[5-(trifluoromethyl)pyridin-2-yl]ethyl}-2,3-dihydro-1H-isoindol-1-one] | 100 | –
2 | O=C1c2cc(-c3nnc(C(F)F)o3)ccc2CN1[C@H](c1ccc(F)cc1)[C@H](O)c1ccc(C(F)(F)F)nc1 (racemic) [Example 142, 6-[5-(difluoromethyl)-1,3,4-oxadiazol-2-yl]-2-{(1RS,2RS)-1-(4-fluorophenyl)-2-hydroxy-2-[6-(trifluoromethyl)pyridin-3-yl]ethyl}-2,3-dihydro-1H-isoindol-1-one] | 100 | –
3 | O=C1c2cc(-c3nnc(C(F)F)o3)ccc2CN1[C@H](C1CC1)[C@@H](O)c1ccc(Cl)cn1 (racemic) [Example 65, 2-[(1RS,2RS)-2-(5-chloropyridin-2-yl)-1-cyclopropyl-2-hydroxyethyl]-6-[5-(difluoromethyl)-1,3,4-oxadiazol-2-yl]-2,3-dihydro-1H-isoindol-1-one] | 98 | –
4 | O=C1c2cc(-c3nnc(C(F)F)o3)ccc2CN1[C@H](c1ncccn1)[C@@H](O)c1cccc(Cl)c1 (racemic) [Example 133, 2-[(1RS,2SR)-2-(3-chlorophenyl)-2-hydroxy-1-(pyrimidin-2-yl)ethyl]-6-[5-(difluoromethyl)-1,3,4-oxadiazol-2-yl]-2,3-dihydro-1H-isoindol-1-one] | 100 | –
5 | CCOc1ccc([C@H]([C@@H](O)c2ccc(F)c(F)c2)N2Cc3ccc(-c4nnc(C(F)F)o4)cc3C2=O)cn1 (racemic) [Example 53, 6-[5-(difluoromethyl)-1,3,4-oxadiazol-2-yl]-2-[(1RS,2SR)-2-(3,4-difluorophenyl)-1-(6-ethoxypyridin-3-yl)-2-hydroxyethyl]-2,3-dihydro-1H-isoindol-1-one] | 100 | –
6 | O=C1c2cc(-c3nnc(C(F)F)o3)ccc2CN1[C@H](c1cccnn1)[C@@H](O)c1ccc(F)c(F)c1 (single isomer, unassigned) [Example 108, 6-[5-(difluoromethyl)-1,3,4-oxadiazol-2-yl]-2-[(1R*,2S*)-2-(3,4-difluorophenyl)-2-hydroxy-1-(pyridazin-3-yl)ethyl]-2,3-dihydro-1H-isoindol-1-one] | 100 | –
7 | O=C1c2cc(-c3nnc(C(F)F)o3)ccc2CN1[C@H](C1CCOCC1)[C@@H](O)c1cccc(C(F)(F)F)c1 (racemic) [Example 116, 6-[5-(difluoromethyl)-1,3,4-oxadiazol-2-yl]-2-{(1RS,2SR)-2-hydroxy-1-(oxan-4-yl)-2-[3-(trifluoromethyl)phenyl]ethyl}-2,3-dihydro-1H-isoindol-1-one] | 101 | –
8 | O=C1c2cc(-c3nnc(C(F)F)o3)ccc2CN1[C@H](c1ncccn1)[C@@H](O)c1ccc(Cl)cc1 (racemic) [Example 93, 2-[(1RS,2SR)-2-(4-chlorophenyl)-2-hydroxy-1-(pyrimidin-2-yl)ethyl]-6-[5-(difluoromethyl)-1,3,4-oxadiazol-2-yl]-2,3-dihydro-1H-isoindol-1-one] | 100 | –
9 | O=C1c2cc(-c3nnc(C(F)F)o3)ccc2CN1[C@H](C1CCOCC1)[C@@H](O)c1ccc(F)cc1 [Example 72, 6-[5-(difluoromethyl)-1,3,4-oxadiazol-2-yl]-2-[(1R,2S)-2-(4-fluorophenyl)-2-hydroxy-1-(oxan-4-yl)ethyl]-2,3-dihydro-1H-isoindol-1-one] | 100 | –
10 | O=C1c2cc(-c3nnc(C(F)F)o3)ccc2CN1[C@H](c1ccccn1)[C@@H](O)c1cccc(Cl)n1 (single isomer, unassigned) [Example 114, 2-[(1R*,2R*)-2-(6-chloropyridin-2-yl)-2-hydroxy-1-(pyridin-2-yl)ethyl]-6-[5-(difluoromethyl)-1,3,4-oxadiazol-2-yl]-2,3-dihydro-1H-isoindol-1-one] | 99 | –
11 | O=C1c2cc(-c3nnc(C(F)F)o3)ccc2CN1[C@H](c1cccc(F)n1)[C@@H](O)c1ccc(F)cn1 (relative stereo) [Example 125, 6-[5-(difluoromethyl)-1,3,4-oxadiazol-2-yl]-2-[(1R*,2R)-2-(5-fluoropyridin-2-yl)-1-(6-fluoropyridin-2-yl)-2-hydroxyethyl]-2,3-dihydro-1H-isoindol-1-one] | 101 | –
12 | O=C1c2cc(-c3nnc(C(F)F)o3)ccc2CN1[C@H](c1cnccn1)[C@@H](O)c1ccc(F)c(F)c1 (single isomer, unassigned) [Example 85, 6-[5-(difluoromethyl)-1,3,4-oxadiazol-2-yl]-2-[(1R*,2S*)-2-(3,4-difluorophenyl)-2-hydroxy-1-(pyrazin-2-yl)ethyl]-2,3-dihydro-1H-isoindol-1-one] | 100 | –

The next lines start with the values.

Row | inhibition at 10 µM [%] | HDAC6 inhibitory rate (%) (10 μM) | Compound
13 | 99 | – | O=C1c2cc(-c3nnc(C(F)F)o3)ccc2CN1[C@H](c1ccccn1)[C@H](O)c1ccccn1 (racemic) [Example 135, 6-[5-(difluoromethyl)-1,3,4-oxadiazol-2-yl]-2-[(1RS,2SR)-2-hydroxy-1,2-di(pyridin-2-yl)ethyl]-2,3-dihydro-1H-isoindol-1-one]
14 | 100 | – | O=C1c2cc(-c3nnc(C(F)F)o3)ccc2CN1[C@@H](c1ccccc1)[C@H](O)c1ccccc1 [Example 14, 6-[5-(difluoromethyl)-1,3,4-oxadiazol-2-yl]-2-[(1S,2R)-2-hydroxy-1,2-diphenylethyl]-2,3-dihydro-1H-isoindol-1-one]
15 | 101 | – | O=C1c2cc(-c3nnc(C(F)F)o3)ccc2CN1[C@H](c1ccccc1F)[C@@H](O)c1ccccc1 (racemic) [Example 27, 6-[5-(difluoromethyl)-1,3,4-oxadiazol-2-yl]-2-[(1RS,2SR)-1-(2-fluorophenyl)-2-hydroxy-2-phenylethyl]-2,3-dihydro-1H-isoindol-1-one]
16 | – | 100 | O=C1c2cc(-c3nnc(C(F)F)o3)ccc2CN1[C@H](c1ccccn1)[C@@H](O)c1ccc(F)cc1 (single isomer, unassigned) [Example 37, 6-[5-(difluoromethyl)-1,3,4-oxadiazol-2-yl]-2-[(1R*,2S*)-2-(4-fluorophenyl)-2-hydroxy-1-(pyridin-2-yl)ethyl]-2,3-dihydro-1H-isoindol-1-one]
17 | – | 100 | O=C1c2cc(-c3nnc(C(F)F)o3)ccc2CN1[C@H](c1ccccc1)[C@@H](O)c1ccccn1 (single isomer, unassigned) [Example 48, 6-[5-(difluoromethyl)-1,3,4-oxadiazol-2-yl]-2-[(1R*,2R*)-2-hydroxy-1-phenyl-2-(pyridin-2-yl)ethyl]-2,3-dihydro-1H-isoindol-1-one]
18 | 100 | – | O=C1c2cc(-c3nnc(C(F)F)o3)ccc2CN1[C@H](c1ccccc1)[C@H](O)c1ccccc1F (racemic) [Example 139, 6-[5-(difluoromethyl)-1,3,4-oxadiazol-2-yl]-2-[(1RS,2RS)-2-(2-fluorophenyl)-2-hydroxy-1-phenylethyl]-2,3-dihydro-1H-isoindol-1-one]
19 | 99 | – | O=C1c2cc(-c3nnc(C(F)F)o3)ccc2CN1[C@H](c1ccc(F)cc1)[C@@H](O)c1ccccc1F (racemic) [Example 29, 6-[5-(difluoromethyl)-1,3,4-oxadiazol-2-yl]-2-[(1RS,2SR)-2-(2-fluorophenyl)-1-(4-fluorophenyl)-2-hydroxyethyl]-2,3-dihydro-1H-isoindol-1-one]
